Consider 2 molecules from patent EP4624457A1, “I[…] DERIVATIVES, I[…] NEURODEGENERATIVE DISEASES” (Centre National de la Recherche Scientifique, priority 2024, dated 2025).

For series [1], the system named is cancer cell lines. As to the kind of experiment: Cytotoxic activity of CiTX, comparison of orders of magnitude. The following applies: this work. The format is cell-based. On the procedure:
Cell viability. […] The cell viability assay was performed using portimine-A as a positive control (Table 4). […] Table 4. Cytotoxic activity of portimine-A and ingrilimine

Series [2] deals with A2780 ovarian carcinoma cells. Description: Cell viability / proliferation assay (CellTiter Glo luminescence, 72 h). The format is cell-based. On the procedure:
(§1) • Figure 1 represents the chemical structure of ingrilimine according to compound (Illa) formula. • Figure 2 represents the cytotoxic activity of ingrilimine. A2780 ovarian and HT29 colorectal carcinoma cells were grown in RPMI 1640 supplemented with 10% fetal calf serum (FCS) and 1% glutamine. U87-MG glioblastoma cells were grown in Dulbecco minimal essential medium containing 4.5 g/L glucose, 10% FCS and 1% glutamine at 37 °C in a humidified atmosphere containing 5% CO2. For IC50 determination, the cells were seeded in 96-well plates (3 × 10^3 cells/well) containing 90 µL of growth medium. After 24 h of culture, the cells were treated with ingrilimine at 10 different final concentrations. Cell viability was determined by luminescence after 72 h incubation. (a) Effect of ingrilimine on A2780 ovarian carcinoma cells. (b) Effect of ingrilimine on U87-MG glioblastoma cells. (c) Effect of ingrilimine on U87-MG glioblastoma cells • Figure 3a-3f represent the mitochondrial dysfunction provoked by ingrilimine. HCT116 cells were treated with ingrilimine in the range of […] for 24h and 48h. Sector Q normal cells that accumulated the JC-1 dye (fluorescence emission 590 nm). […] (a) Non-treated cells incubated with the carrier (DMSO) for 24 h. (b) HCT116 cells incubated with […] ingrilimine for 24 h. (c) HCT116 cells incubated with 250 nM ingrilimine for 24 h. (d) Non-treated cells incubated with the carrier (DMSO) for 48 h. (e) HCT116 cells incubated with […] ingrilimine for 48 h. (f) HCT116 cells incubated with 250 nM ingrilimine for 48. Changes in fluorescence emission were recorded by flow cytometry using the JC-1 mithocondrial membrane potential-dependent fluorescent dye. NT = non-treated cells; IngX = ingrilimine. • Figure 4a-4f represents phosphatidylserine exposure provoked by ingrilimine. A2780 cancer cells were incubated with ingrilimine in the range of 10-500 nM before staining with FITC-Annexin V and propidium iodide. Quadrants D1 and D2 with dead or necrotic cells, quadrant D3 with normal cells and quadrant D4 with apoptotic cells following phosphatidylserine exposure. (a) Non-treated A2780 cells incubated with the carrier (DMSO) for 24h. (b) A2780 cells incubated with 10 nM ingrilimine for 24 h. (c) A2780 cells incubated with 250 nM ingrilimine for 24 h. (d) Non-treated A2780 cells incubated with the carrier (DMSO) for 48 h. (e) A2780 cells incubated with 10 nM ingrilimine for 48 h. (f) A2780 cells incubated with 250 nM ingrilimine for 48. […] exposure in A2780 cell was quantified by flow cytometry using FITC-Annexin V. Dead or necrotic cells were detected using the vital dye propridium iodide. NT = non-treated cells; IngX = ingrilimine. • Figure 5 represents the antagonistic activity of ingrilimine (named "IngX" in the figure) and portimine (named "Port A" in the figure) against nicotinic acetylcholine receptors recorded by two-electrodes voltage clamp electrophysiology on Xenopus laevis oocytes. Clamped Xenopus laevis oocytes having incorporated the muscle (α1)2βγδ nAChR subtype from Torpedo marmorata (filled squares), or expressing the neuronal α3β2 nAChR subtype from rat (filled triangles), or expressing the human neuronal α7 nAChR subtype (filled circles) were exposed to portimine (100 nM - 1 mM) for 45 seconds. […] A Xenopus laevis oocyte expressing the human α7 nAChR subtype was exposed to 100 µM acetylcholine triggering the immediate opening of the receptor's channel (black bold line) followed by the very-fast closure of the channel ([…]) that became insensitive to acetylcholine during the rest of the 5 seconds exposure (desensitization). When a Xenopus laevis oocyte expressing the human α7 nAChR subtype was exposed first to 10 nM ingrilimine for 45 seconds and then to a mixture (Mix) containing 10 nM ingrilimine and 100 µM acetylcholine, the receptor's channel was closed denoting a strong antagonistic activity of the tested toxin against the α7 nAChR subtype (dotted line). […]
A general note: In ATP-based viability assays light output follows the ATP content of the culture.

In series [3] the test system is HT29 colorectal carcinoma cells. Described as above. The format is cell-based. The following applies: for IC50: 72 h incubation, mean ± SEM from three distinct experiments. As for the experimental part: as §1
For series [4], the system named is U87-MG glioblastoma cells. Described as above. The format is cell-based. The conditions noted are these: for IC50: 72 h incubation, mean ± SEM from three distinct experiments. On the procedure: as §1
Series [5] deals with Jurkat cells. The conditions noted are these: 50 nM for 6 h; cited from earlier work.
Series [6] concerns cancer cell lines. The following applies: literature (Tang et al. 2023; Fribley et al. 2019); cited from earlier work.
Series [7] deals with T1, neuronal α3β2 nAChR subtype (Rattus norvegicus, UniProt P04757+P12390).
T1 construct: expressed in transfected cells; host or cells: Xenopus laevis oocytes injected with mRNA
Description: Two-electrode voltage clamp electrophysiology on Xenopus laevis oocytes expressing the α3β2 nAChR. The format is cell-based. The conditions noted are these: portimine 100 nM - 1 mM for 45 seconds; stated for the three nAChR subtypes tested. As for the experimental part: • Figure 1 represents the chemical structure of ingrilimine according to compound (Illa) formula. • Figure 2 represents the cytotoxic activity of ingrilimine. A2780 ovarian and HT29 colorectal carcinoma cells were grown in RPMI 1640 supplemented with 10% fetal calf serum (FCS) and 1% glutamine. U87-MG glioblastoma cells were grown in Dulbecco minimal essential medium containing 4.5 g/L glucose, 10% FCS and 1% glutamine at 37 °C in a humidified atmosphere containing 5% CO2. For IC50 determination, the cells were seeded in 96-well plates (3 × 10^3 cells/well) containing 90 µL of growth medium. After 24 h of culture, the cells were treated with ingrilimine at 10 different final concentrations. Cell viability was determined by luminescence after 72 h incubation. (a) Effect of ingrilimine on A2780 ovarian carcinoma cells. (b) Effect of ingrilimine on U87-MG glioblastoma cells. […] Sector Q normal cells that accumulated the JC-1 dye (fluorescence emission 590 nm). […] Changes in fluorescence emission were recorded by flow cytometry using the JC-1 mithocondrial membrane potential-dependent fluorescent dye. […] Phosphatidylcholine exposure in A2780 cell was quantified by flow cytometry using FITC-Annexin V. Dead or necrotic cells were detected using the vital dye propridium iodide. […]
Background: In two-electrode clamp one electrode senses voltage and the other passes current.

Where two headings read alike, the source gives them in different places.

T1 sequence (P12390 25-500): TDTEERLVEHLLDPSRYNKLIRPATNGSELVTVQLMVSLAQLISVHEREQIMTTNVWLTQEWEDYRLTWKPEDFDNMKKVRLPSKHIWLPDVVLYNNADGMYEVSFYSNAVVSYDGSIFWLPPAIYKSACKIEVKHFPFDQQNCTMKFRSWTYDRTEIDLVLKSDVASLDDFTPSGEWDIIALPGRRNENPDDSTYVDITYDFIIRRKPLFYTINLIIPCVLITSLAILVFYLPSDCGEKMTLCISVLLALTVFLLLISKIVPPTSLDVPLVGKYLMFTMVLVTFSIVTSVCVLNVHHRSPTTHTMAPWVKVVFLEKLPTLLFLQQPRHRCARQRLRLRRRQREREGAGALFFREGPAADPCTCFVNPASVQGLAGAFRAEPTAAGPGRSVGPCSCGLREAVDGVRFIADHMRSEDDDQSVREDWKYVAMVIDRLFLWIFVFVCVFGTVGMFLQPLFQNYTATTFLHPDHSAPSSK
T1 sequence (P04757 26-499): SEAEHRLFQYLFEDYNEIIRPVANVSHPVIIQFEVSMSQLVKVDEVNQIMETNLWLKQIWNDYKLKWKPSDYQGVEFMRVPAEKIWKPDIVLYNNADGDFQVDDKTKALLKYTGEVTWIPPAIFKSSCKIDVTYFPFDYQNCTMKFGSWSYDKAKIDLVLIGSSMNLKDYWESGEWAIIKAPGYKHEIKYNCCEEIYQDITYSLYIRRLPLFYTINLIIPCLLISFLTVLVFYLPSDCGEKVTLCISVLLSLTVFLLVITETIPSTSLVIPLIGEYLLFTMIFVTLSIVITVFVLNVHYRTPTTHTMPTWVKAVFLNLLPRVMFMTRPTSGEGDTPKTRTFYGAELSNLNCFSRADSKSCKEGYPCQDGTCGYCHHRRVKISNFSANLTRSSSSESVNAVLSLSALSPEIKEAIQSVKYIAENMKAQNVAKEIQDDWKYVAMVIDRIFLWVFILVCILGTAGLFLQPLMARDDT

What is called IC50 is the concentration that inhibits the measured activity by half. Regarding `C=CC1=C[C@@H]2C[C@@H](O)[C@@H](O)/C(C)=C/C/C(C)=C/CCC3=NCCC[C@]32CC1` [Ingrilimine, ingrilimine], the “cytotoxic activities, order of magnitude” value in series [1] is ~10^-8 M. Also, the IC50 in series [2] (Homo sapiens, A2780, 72 h incubation, mean ± SEM from three distinct experiments, read-out: IC50 ± SEM (nM) A2780) is 10.6 ± 0.2 nM; in series [2] (Homo sapiens, A2780, HT29 and U87-MG together, read-out: IC50 values, range over the three cancer cell lines tested) it was 10 to 45 nM; in series [3] (Homo sapiens, HT-29) it was 34.3 ± 1.1 nM; in series [4] (Homo sapiens, U-87 MG), 44.2 ± 0.3 nM. Moreover, the “times less potent than portimine-A to kill the A2780 ovarian cancer cells” value in series [2] (ratio of IC50) was determined as 13 times. Besides, the “cytotoxic activity, times less potent compared to portimine-A” value is reported as 5 times in series [3] (HT29, ratio of IC50) and 5 times in series [4] (U87-MG, ratio of IC50).
As to `C=CC1=C[C@@H]2[C@@H]3O[C@]4(CC[C@H](O4)[C@@H](C)C[C@@H](O)C3=O)C[C@H](O)C3=NCC[C@@]32CC1` [Portimine-A], in series [5], the “annexin V-positive cells” value is listed as 50%. For the same molecule, the viable cells in series [5] is listed as 50%. In addition, in series [6], the “cytotoxic activities, order of magnitude” value was ~10^-9 M. For the same molecule, the “inhibition of the acetylcholine-evoked current, concentration range” value in series [7] is given as “micromolar range”. Besides, the IC50 in series [2] (72 h incubation, mean ± SEM from three distinct experiments, read-out: IC50 ± SEM (nM) A2780) turned out to be 0.77 ± 0.1 nM; in series [3], 6.4 ± 0.1 nM; in series [4], 8.1 ± 7.8 nM.
